From PMC11609934, “Exploration and characterization of the antimalarial activity of cyclopropyl carboxamides that target the mitochondrial protein, cytochrome b” (European Journal of Medicinal Chemistry, 2024)

System: 3D7 P. falciparum strain
Assay: Parasite reduction ratio (PRR) assay
Assay type: cell-based, Plasmodium falciparum
Conditions: 10 times the EC50, up to 120 h
Experimental: The parasite reduction ratio (PRR) assay is a benchmark assay used to determine the speed of kill of antimalarials at an early stage of development. […] After 28 days of incubation, parasite growth is measured using an LDH assay.
Parasite Reduction Ratio Assay. This is a platform assay conducted by TGC Lifesciences using a previously described protocol. […] Parasites were treated up to 120 h. Drug was renewed every 24 h over the entire treatment period (as directed). Samples of parasites were taken from the treated culture every 24 h (24, 48, 72, 96 and 120 h time points), drug was washed out and drug-free parasites were cultured in 96 well plates. To quantify number of viable parasites after treatment, serial dilutions were performed with the above-mentioned compounds after washing out the compound. Parasites were cultured in microtiter plates to allow all wells with viable parasites, to render detectable parasitaemia. After 22 days of culturing, cultured plates were checked for parasite growth. Final sampling was done after 28 days to confirm growth/no growth. The parasite levels were determined using a LDH assay as follows. A culture of parasitized red blood cells (RBC) of strain 3D7 with 0.25 % parasitaemia and 2 % haematocrit in RPMI-1640, 0.5 % albumax and 150 μM hypoxanthine is exposed to 3-fold serial dilutions of the compound. […]

SMILES: O=C(NC1CC1)c1ccc(CN(Cc2ccc(Cl)cc2Cl)C2CC2)cc1 [W499 (2)]
- rate of kill in PRR assay: moderate to slow rate of kill
